Source: patent publication US20140045823A1 (Neurocrine Biosciences, Inc., priority 2012, published 2014)

Target: T1, mutant form of the human GPR119 receptor (Homo sapiens, UniProt Q8TDV5, S329A/T327A)
T1 construct: expressed in transfected cells
T1 sequence (Q8TDV5 with tags, fused parts or gaps T327A/S329A): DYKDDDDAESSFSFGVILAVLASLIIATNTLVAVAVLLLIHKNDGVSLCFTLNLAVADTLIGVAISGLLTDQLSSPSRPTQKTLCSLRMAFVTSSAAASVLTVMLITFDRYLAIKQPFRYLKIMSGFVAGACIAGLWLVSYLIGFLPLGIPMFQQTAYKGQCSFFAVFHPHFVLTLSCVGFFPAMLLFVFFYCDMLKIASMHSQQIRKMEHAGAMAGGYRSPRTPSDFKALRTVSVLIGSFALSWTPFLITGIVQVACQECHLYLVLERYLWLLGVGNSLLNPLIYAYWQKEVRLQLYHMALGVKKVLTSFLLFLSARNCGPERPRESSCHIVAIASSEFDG
Assay: LANCE cAMP-384 assay in HEK293 cells stably expressing a mutant form of the human GPR119 receptor
Assay type: cell-based
Conditions: mutant human GPR119, LANCE cAMP-384 Kit, 20 min at 37° C., read-out: EC50 (cAMP accumulation)
Method: Quantitative detection of cAMP accumulation from cells expressing human GPR119 receptor is achieved using Perkin Elmer's LANCE cAMP-384 Kit (Cat#AD0264) according to the manufacturer's protocol. Briefly, HEK293 cells stably expressing a mutant form of the human GPR119 receptor as assay tool (Methionine 1 replaced with the amino acid sequence […], and T327 & S329 changed to alanines; SEQ ID No. 1) are grown to 50-70% confluency in cell culture media (DMEM, 10% heat inactivated Fetal Bovine Serum, 50 I.U./mL penicillin, 50 μg/mL streptomycin, 10 mM HEPES, 20 μg/mL G418 Sulfate). On the day of the assay, GPR119 stable HEK293 cells are lifted from the tissue culture plate and 1000 cells/well are incubated along with various concentrations of test compounds for 20 min at 37° C. Detection Buffer (50 mM HEPES, 10 mM calcium chloride, 0.35% Triton X-100, 1 mg/mL BSA) containing cAMP-specific antibody is then added to all wells and allowed to equilibrate in the dark for 10 minutes at room temperature. Upon equilibration, Detection Buffer containing europium-labeled cAMP tracer complex is added to all wells and allowed to react for 1 hour at room temperature. After 1 hour, bound europium-labeled cAMP tracer is measured using a Perkin Elmer Envision plate reader. The quantity of cAMP generated in each well is derived from a standard curve. EC50 is determined using nonlinear regression analysis of the cAMP values over a range of agonist concentration (12 points spanning the range from 30 μM to […]).

| SMILES | EC50 |
| --- | --- |
| Cc1nnnn1-c1ccc(C(=O)N(C2CC2)C2CCN(C(=O)OC(C)C)CC2F)cn1 (single isomer, unassigned) [Example 249] | 146 nM |
| CC(C)OC(=O)N1CCC(N(C(=O)c2cnc(-n3cncn3)cn2)C2CC2)CC1 [Example 253] | 435 nM |
| Cc1ncnn1-c1ccc(C(=O)N(C2CC2)[C@@H]2CCN(C(=O)OC(C)C)C[C@@H]2F)cn1 [Example 252] | 193 nM |
| CC(C)OC(=O)N1CC[C@@H](N(C(=O)c2cnc(-n3cncn3)cn2)C2CC2)[C@@H](F)C1 [Example 248] | 54 nM |
| Cc1ncn(-c2cnc(C(=O)N(C3CC3)C3CCN(C(=O)OC(C)C)CC3)cn2)n1 [Example 255] | 1550 nM |
| Cc1nccn1-c1ncc(C(=O)N(C2CC2)[C@@H]2CCN(C(=O)OC(C)C)C[C@@H]2F)cn1 [Example 250] | 45 nM |
| CC(C)OC(=O)N1CC[C@H](N(C(=O)c2cnc(-n3cncn3)cn2)C2CC2)[C@H](F)C1 [Example 257] | 801 nM |
| Cc1nccn1-c1ncc(C(=O)N(C2CC2)[C@H]2CCN(C(=O)OC(C)C)C[C@H]2F)cn1 [Example 251] | 587 nM |
| Cc1nccn1-c1ncc(C(=O)N(C2CC2)C2CCN(C(=O)OC(C)C)CC2)cn1 [Example 256] | 265 nM |
| Cc1nccn1-c1cnc(C(=O)N(C2CC2)C2CCN(C(=O)OC(C)C)CC2)cn1 [Example 254] | 518 nM |

Target: T2, human GPR119 (Homo sapiens, UniProt Q8TDV5)
T2 construct: expression vector for human GPR119 cDNA (Acc. No. NP_848566); expressed in transfected cells; Min-6/hGPR119
T2 sequence (Q8TDV5 1-335): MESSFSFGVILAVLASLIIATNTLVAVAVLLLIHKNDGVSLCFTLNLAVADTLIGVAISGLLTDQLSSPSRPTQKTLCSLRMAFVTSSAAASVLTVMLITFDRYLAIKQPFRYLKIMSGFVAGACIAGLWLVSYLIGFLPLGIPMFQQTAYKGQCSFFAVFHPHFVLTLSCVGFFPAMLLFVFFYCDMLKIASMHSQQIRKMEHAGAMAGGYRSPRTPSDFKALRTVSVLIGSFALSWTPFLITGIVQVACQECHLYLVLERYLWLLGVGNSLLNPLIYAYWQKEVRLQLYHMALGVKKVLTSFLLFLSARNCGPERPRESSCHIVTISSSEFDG
Assay: AlphaScreen cAMP assay in MIN6 cells stably transfected with human GPR119
Assay type: cell-based
Conditions: Min-6/hGPR119 cells, 45 min at room temperature
Summary of the method: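 MIN6 cells stably expressing human GPR119, seeded 10000/well and grown 24 h, were exposed to compound in pH 7.4 buffer with 0.5 mM IBMX, 0.1% BSA and 1% DMSO for 45 min at room temperature. Intracellular cAMP then measured by AlphaScreen.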

| EC50 | SMILES |
| --- | --- |
| 146 nM | COCCNC(=O)c1ccc(-c2ncc(C(=O)N(C3CC3)C3CCN(C(=O)OC(C)(C)C)CC3)cn2)cc1F [Example 167, 4-(Cyclopropyl-{2-[3-fluoro-4-(2-methoxy-ethylcarbamoyl)-phenyl]-pyrimidine-5-carbonyl}-amino)-piperidine-1-carboxylic acid tert-butyl ester] |
| 161 nM | CC(C)(C)OC(=O)N1CCC(N(C(=O)c2cnc(-c3ccc(C(=O)NCCOC(F)(F)F)cc3)nc2)C2CC2)CC1 [Example 227, 4-(Cyclopropyl-{2-[4-(2-trifluoromethoxy-ethylcarbamoyl)-phenyl]-pyrimidine-5-carbonyl]-amino)-piperidine-1-carboxylic acid tert-butyl ester] |
| 42 nM | CC(C)(C)OC(=O)N1CCC(N(C(=O)c2cnc(-c3ccncc3)nc2)C2CC2)CC1 [Example 63, 4-[Cyclopropyl-(2-pyridin-4-yl-pyrimidine-5-carbonyl)-amino]-piperidine-1-carboxylic acid tert-butyl ester] |
| 64 nM | CC(C)(C)OC(=O)N1CCC(N(C(=O)c2cnc(-c3ccc(C(=O)NCC4CCCO4)c(F)c3)nc2)C2CC2)CC1 (centres unmarked) [Example 146, 4-[Cyclopropyl-(2-{3-fluoro-4-[(tetrahydro-furan-2-ylmethyl)-carbamoyl]-phenyl}-pyrimidine-5-carbonyl)-amino]-piperidine-1-carboxylic acid tert-butyl ester] |
